Laboratory results: PubChem BioAssay (NCI)
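Protocol summary: plate cells (96-well), add compound at 5 concentrations, incubate 48 h, interpolate endpoints linearly. TGI denotes the concentration required for complete inhibition of growth.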

Columns and labels:
Assay in all cases: growth of human tumour cells (NCI), 48 h
TK-10 renal = tested on: TK-10 renal
A549 NSCLC = tested on: A549 NSCLC
T-47D breast = tested on: T-47D breast
CAKI-1 renal = tested on: CAKI-1 renal
MDA-MB-435 = tested on: MDA-MB-435
NCI-H23 lung = tested on: NCI-H23 lung
SNB-19 CNS = tested on: SNB-19 CNS
M14 melanoma = tested on: M14 melanoma
CCRF-CEM leukemia = tested on: CCRF-CEM leukemia
DU-145 prostate = tested on: DU-145 prostate
SN12C renal = tested on: SN12C renal
UACC-257 melanoma = tested on: UACC-257 melanoma
RPMI-8226 leukemia = tested on: RPMI-8226 leukemia
U251 CNS = tested on: U251 CNS
HCC-2998 colon = tested on: HCC-2998 colon

## COC(=O)c1ccc(Oc2nc3ccccc3nc2-c2cccs2)cc1
TK-10 renal
  TGI: 86.8 µM
A549 NSCLC
  TGI: 76.9 µM
T-47D breast
  TGI: > 100 µM
CAKI-1 renal
  TGI: > 100 µM
MDA-MB-435
  TGI: > 100 µM
NCI-H23 lung
  TGI: 74.5 µM
SNB-19 CNS
  TGI: 86.1 µM
M14 melanoma
  TGI: > 100 µM
CCRF-CEM leukemia
  TGI: > 100 µM
DU-145 prostate
  TGI: > 100 µM
SN12C renal
  TGI: > 100 µM
UACC-257 melanoma
  TGI: > 100 µM

## N=C(N)C1CN(CCc2cnc[nH]2)C(=O)NC1=O (stereo not drawn)
TK-10 renal
  TGI: > 100 µM
A549 NSCLC
  TGI: > 100 µM
RPMI-8226 leukemia
  TGI: > 100 µM
CAKI-1 renal
  TGI: > 100 µM
MDA-MB-435
  TGI: > 100 µM
NCI-H23 lung
  TGI: > 100 µM
SNB-19 CNS
  TGI: > 100 µM
M14 melanoma
  TGI: > 100 µM
U251 CNS
  TGI: > 100 µM
CCRF-CEM leukemia
  TGI: > 100 µM
HCC-2998 colon
  TGI: > 100 µM
DU-145 prostate
  TGI: > 100 µM
SN12C renal
  TGI: > 100 µM
UACC-257 melanoma
  TGI: > 100 µM

## O=c1[nH]c(=O)n(C2CC(O)C(CO)O2)cc1NN=NCCc1ccccc1 (stereo not drawn)
TK-10 renal
  TGI: > 100 µM
A549 NSCLC
  TGI: > 100 µM
T-47D breast
  TGI: > 100 µM
RPMI-8226 leukemia
  TGI: > 100 µM
CAKI-1 renal
  TGI: > 100 µM
MDA-MB-435
  TGI: > 100 µM
NCI-H23 lung
  TGI: > 100 µM
SNB-19 CNS
  TGI: > 100 µM
M14 melanoma
  TGI: > 100 µM
U251 CNS
  TGI: > 100 µM
CCRF-CEM leukemia
  TGI: > 100 µM
DU-145 prostate
  TGI: > 100 µM
SN12C renal
  TGI: > 100 µM
UACC-257 melanoma
  TGI: > 100 µM

## CC1=NN(c2nc(N)nc(/C(C#N)=C/c3ccc([N+](=O)[O-])o3)n2)C(C)(C)C1
TK-10 renal
  TGI: 4.52 µM
A549 NSCLC
  TGI: 29.8 µM
T-47D breast
  TGI: 7.05 µM
RPMI-8226 leukemia
  TGI: > 22.8 µM
CAKI-1 renal
  TGI: 3.81 µM
MDA-MB-435
  TGI: 6.38 µM
NCI-H23 lung
  TGI: 10.8 µM
SNB-19 CNS
  TGI: 29.7 µM
M14 melanoma
  TGI: 2.75 µM
U251 CNS
  TGI: 11.3 µM
CCRF-CEM leukemia
  TGI: > 100 µM
HCC-2998 colon
  TGI: 39.4 µM
DU-145 prostate
  TGI: 17 µM
UACC-257 melanoma
  TGI: 27.2 µM

## COc1ccc(N)c(C(O)CCNC(C)=O)c1 (stereo not drawn)
TK-10 renal
  TGI: > 100 µM
A549 NSCLC
  TGI: > 100 µM
T-47D breast
  TGI: > 100 µM
RPMI-8226 leukemia
  TGI: > 100 µM
CAKI-1 renal
  TGI: > 100 µM
MDA-MB-435
  TGI: > 100 µM
NCI-H23 lung
  TGI: > 100 µM
SNB-19 CNS
  TGI: > 100 µM
M14 melanoma
  TGI: > 100 µM
U251 CNS
  TGI: > 100 µM
CCRF-CEM leukemia
  TGI: > 100 µM
DU-145 prostate
  TGI: > 100 µM
SN12C renal
  TGI: > 100 µM
UACC-257 melanoma
  TGI: > 100 µM

## COC1(C(C)(C)C)C=C(C(C)(C)C)P(=O)(O)O1 (stereo not drawn)
TK-10 renal
  TGI: > 100 µM
A549 NSCLC
  TGI: > 100 µM
T-47D breast
  TGI: > 100 µM
RPMI-8226 leukemia
  TGI: > 100 µM
CAKI-1 renal
  TGI: > 100 µM
MDA-MB-435
  TGI: > 100 µM
NCI-H23 lung
  TGI: > 100 µM
SNB-19 CNS
  TGI: > 100 µM
M14 melanoma
  TGI: > 100 µM
U251 CNS
  TGI: > 100 µM
HCC-2998 colon
  TGI: > 100 µM
DU-145 prostate
  TGI: > 100 µM
SN12C renal
  TGI: > 100 µM
UACC-257 melanoma
  TGI: > 100 µM

## COc1ccc(-c2cc(-c3ccc(Cl)cc3)n(C3OC(CO)C(O)C(O)C3O)c(=S)c2C#N)cc1 (stereo not drawn)
TK-10 renal
  TGI: 82.8 µM
T-47D breast
  TGI: > 100 µM
RPMI-8226 leukemia
  TGI: > 100 µM
MDA-MB-435
  TGI: > 100 µM
SNB-19 CNS
  TGI: > 100 µM
M14 melanoma
  TGI: 89.7 µM
U251 CNS
  TGI: > 100 µM
HCC-2998 colon
  TGI: > 100 µM
DU-145 prostate
  TGI: > 100 µM
SN12C renal
  TGI: > 100 µM
UACC-257 melanoma
  TGI: > 100 µM

## CCC[C@H](O)[C@@H](CNc1cc(NC(C)=O)nc(NC(C)=O)n1)N(Cc1ccccc1)Cc1ccccc1
TK-10 renal
  TGI: 45.1 µM
A549 NSCLC
  TGI: 72.1 µM
RPMI-8226 leukemia
  TGI: > 100 µM
CAKI-1 renal
  TGI: 38.5 µM
MDA-MB-435
  TGI: > 100 µM
NCI-H23 lung
  TGI: 58.4 µM
SNB-19 CNS
  TGI: > 100 µM
M14 melanoma
  TGI: > 100 µM
U251 CNS
  TGI: > 100 µM
HCC-2998 colon
  TGI: > 100 µM
DU-145 prostate
  TGI: > 100 µM
SN12C renal
  TGI: > 100 µM
UACC-257 melanoma
  TGI: > 100 µM

## Oc1[nH]c2ccccc2c1N=NC(=S)N1CCCCC1
TK-10 renal
  TGI: 3.84 µM
A549 NSCLC
  TGI: 3.44 µM
T-47D breast
  TGI: 20 µM
RPMI-8226 leukemia
  TGI: 2.43 µM
CAKI-1 renal
  TGI: 4.43 µM
MDA-MB-435
  TGI: 4.58 µM
NCI-H23 lung
  TGI: 9.14 µM
SNB-19 CNS
  TGI: 12.5 µM
M14 melanoma
  TGI: 2.23 µM
U251 CNS
  TGI: 7.83 µM
HCC-2998 colon
  TGI: 8.87 µM
DU-145 prostate
  TGI: 10.9 µM
SN12C renal
  TGI: 15.1 µM

## CSc1ccccc1P(c1ccccc1SC)c1ccccc1SC
TK-10 renal
  TGI: > 100 µM
A549 NSCLC
  TGI: > 100 µM
T-47D breast
  TGI: > 100 µM
RPMI-8226 leukemia
  TGI: > 100 µM
CAKI-1 renal
  TGI: > 100 µM
MDA-MB-435
  TGI: > 100 µM
NCI-H23 lung
  TGI: > 100 µM
SNB-19 CNS
  TGI: > 100 µM
M14 melanoma
  TGI: > 100 µM
U251 CNS
  TGI: > 100 µM
CCRF-CEM leukemia
  TGI: > 100 µM
DU-145 prostate
  TGI: > 100 µM
SN12C renal
  TGI: > 100 µM

## Cc1cccc(-n2c(C)nc3ccc(NC4OC(CO)C(O)C(O)C4O)cc3c2=O)c1 (stereo not drawn)
TK-10 renal
  TGI: > 100 µM
T-47D breast
  TGI: > 100 µM
RPMI-8226 leukemia
  TGI: > 100 µM
CAKI-1 renal
  TGI: > 100 µM
MDA-MB-435
  TGI: > 100 µM
NCI-H23 lung
  TGI: > 100 µM
SNB-19 CNS
  TGI: > 100 µM
U251 CNS
  TGI: > 100 µM
HCC-2998 colon
  TGI: > 100 µM
DU-145 prostate
  TGI: > 100 µM
SN12C renal
  TGI: > 100 µM
UACC-257 melanoma
  TGI: > 100 µM

## COC(=O)/C=C/c1cnc2c(c1)oc(=O)n2CCc1ccccn1
TK-10 renal
  TGI: > 100 µM
A549 NSCLC
  TGI: > 100 µM
T-47D breast
  TGI: > 100 µM
RPMI-8226 leukemia
  TGI: > 100 µM
MDA-MB-435
  TGI: 89 µM
NCI-H23 lung
  TGI: > 100 µM
SNB-19 CNS
  TGI: > 100 µM
M14 melanoma
  TGI: > 100 µM
U251 CNS
  TGI: > 100 µM
CCRF-CEM leukemia
  TGI: 69 µM
HCC-2998 colon
  TGI: > 100 µM
SN12C renal
  TGI: > 100 µM
UACC-257 melanoma
  TGI: > 100 µM

## CCCCC1Cc2ccccc2-c2n1c1ccccc1[n+]2C (stereo not drawn)
TK-10 renal
  TGI: > 100 µM
T-47D breast
  TGI: 7.3 µM
RPMI-8226 leukemia
  TGI: 14 µM
CAKI-1 renal
  TGI: > 100 µM
MDA-MB-435
  TGI: > 100 µM
NCI-H23 lung
  TGI: 42.5 µM
M14 melanoma
  TGI: > 100 µM
U251 CNS
  TGI: > 100 µM
CCRF-CEM leukemia
  TGI: > 100 µM
HCC-2998 colon
  TGI: 48.3 µM
DU-145 prostate
  TGI: > 100 µM
UACC-257 melanoma
  TGI: 25.2 µM

## CCC(C)C(C(=O)N/N=C1/SCC(=O)N1C)C(=O)N/N=C1/SCC(=O)N1C (stereo not drawn)
TK-10 renal
  TGI: > 100 µM
A549 NSCLC
  TGI: > 100 µM
T-47D breast
  TGI: > 100 µM
RPMI-8226 leukemia
  TGI: > 100 µM
CAKI-1 renal
  TGI: > 100 µM
MDA-MB-435
  TGI: > 100 µM
NCI-H23 lung
  TGI: > 100 µM
SNB-19 CNS
  TGI: > 100 µM
M14 melanoma
  TGI: > 100 µM
U251 CNS
  TGI: > 100 µM
HCC-2998 colon
  TGI: > 100 µM
DU-145 prostate
  TGI: > 100 µM
SN12C renal
  TGI: > 100 µM
UACC-257 melanoma
  TGI: > 100 µM

## CN(C)/C(N)=N/C(N)=Nc1cccc(Cl)c1
TK-10 renal
  TGI: > 100 µM
A549 NSCLC
  TGI: > 100 µM
T-47D breast
  TGI: 77.2 µM
RPMI-8226 leukemia
  TGI: > 100 µM
CAKI-1 renal
  TGI: > 100 µM
MDA-MB-435
  TGI: > 100 µM
NCI-H23 lung
  TGI: > 100 µM
SNB-19 CNS
  TGI: > 100 µM
M14 melanoma
  TGI: > 100 µM
U251 CNS
  TGI: > 100 µM
HCC-2998 colon
  TGI: > 100 µM
SN12C renal
  TGI: > 100 µM
UACC-257 melanoma
  TGI: > 100 µM

## Nc1nc(N)c(C2=CCN(Cc3ccccc3)CC2)c(=O)[nH]1
A549 NSCLC
  TGI: > 100 µM
T-47D breast
  TGI: > 100 µM
RPMI-8226 leukemia
  TGI: > 100 µM
CAKI-1 renal
  TGI: > 100 µM
MDA-MB-435
  TGI: > 100 µM
NCI-H23 lung
  TGI: > 100 µM
SNB-19 CNS
  TGI: > 100 µM
M14 melanoma
  TGI: > 100 µM
U251 CNS
  TGI: > 100 µM
CCRF-CEM leukemia
  TGI: > 100 µM
DU-145 prostate
  TGI: > 100 µM
SN12C renal
  TGI: > 100 µM
UACC-257 melanoma
  TGI: > 100 µM

## CCOC(=O)[C@@H]1C[C@H]1c1ccc(O)c(O)c1
TK-10 renal
  TGI: > 100 µM
A549 NSCLC
  TGI: > 100 µM
T-47D breast
  TGI: 88.1 µM
RPMI-8226 leukemia
  TGI: > 100 µM
CAKI-1 renal
  TGI: > 100 µM
MDA-MB-435
  TGI: > 100 µM
NCI-H23 lung
  TGI: > 100 µM
SNB-19 CNS
  TGI: > 100 µM
M14 melanoma
  TGI: 73.6 µM
U251 CNS
  TGI: > 100 µM
HCC-2998 colon
  TGI: 91.9 µM
DU-145 prostate
  TGI: > 100 µM
SN12C renal
  TGI: > 100 µM
UACC-257 melanoma
  TGI: > 100 µM
